The values below are quoted from earlier work in US20150267258A1, “BIOMARKERS FOR DETERMINING EFFECTIVE RESPONSE OF TREATMENTS OF HEPATOCELLULAR CARCINOMA (HCC) PATIENTS” (BAYER PHARMA AKTIENGESELLSCHAFT, priority 2012, published 2015).

The test system of data set [1] is metastatic colorectal cancer. To be noted: patients with metastatic colorectal cancer.

On to `CNC(=O)c1cc(Oc2ccc(NC(=O)Nc3ccc(Cl)c(C(F)(F)F)c3)c(F)c2)ccn1` [Regorafenib, 4-[4-({[4-Chloro-3-(trifluoromethyl)phenyl]carbamoyl}amino)-3-fluorophenoxy]-N-methylpyridine-2-carboxamide], for which, in data set [1], the Overall survival entry is given as “increase the overall survival”.

For `CNC(=O)c1cc(Oc2ccc(NC(=O)Nc3ccc(Cl)c(C(F)(F)F)c3)cc2)ccn1` [Sorafenib, 4-[4-[[4-chloro-3-(trifluoromethyl)phenyl]carbamoylamino]phenoxy]-N-methyl-pyridine-2-carboxamide], the “Effectiveness in lung cancer” value in the data set on lung cancer is on record as “effective in lung cancer”.
